# According to ChEMBL document CHEMBL5465560, “Selectivity Literature for EUbOPEN Chemogenomic Library” (2024):
# Experiments:
# Conditions in all cases: at 10 µM
# [1] = target: T1, Myosin light chain kinase family member 4 (Homo sapiens) (UniProt Q86YV6)
# T1 sequence (whole entry): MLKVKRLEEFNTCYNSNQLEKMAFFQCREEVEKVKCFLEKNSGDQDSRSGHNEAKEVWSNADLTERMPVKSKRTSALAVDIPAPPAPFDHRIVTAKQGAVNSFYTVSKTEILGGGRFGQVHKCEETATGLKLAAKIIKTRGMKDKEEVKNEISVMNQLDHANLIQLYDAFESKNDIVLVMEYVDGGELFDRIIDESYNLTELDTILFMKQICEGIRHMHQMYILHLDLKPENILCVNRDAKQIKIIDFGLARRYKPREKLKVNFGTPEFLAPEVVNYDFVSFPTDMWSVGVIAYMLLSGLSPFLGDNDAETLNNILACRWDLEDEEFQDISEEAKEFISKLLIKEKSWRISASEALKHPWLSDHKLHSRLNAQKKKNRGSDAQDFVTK
# [2] = target: T2, Serine/threonine-protein kinase 17A (Homo sapiens) (UniProt Q9UEE5); assay: Selectivity interaction (KinomeScan (DiscoverX)) EUB0000607a STK17A
# T2 sequence (whole entry): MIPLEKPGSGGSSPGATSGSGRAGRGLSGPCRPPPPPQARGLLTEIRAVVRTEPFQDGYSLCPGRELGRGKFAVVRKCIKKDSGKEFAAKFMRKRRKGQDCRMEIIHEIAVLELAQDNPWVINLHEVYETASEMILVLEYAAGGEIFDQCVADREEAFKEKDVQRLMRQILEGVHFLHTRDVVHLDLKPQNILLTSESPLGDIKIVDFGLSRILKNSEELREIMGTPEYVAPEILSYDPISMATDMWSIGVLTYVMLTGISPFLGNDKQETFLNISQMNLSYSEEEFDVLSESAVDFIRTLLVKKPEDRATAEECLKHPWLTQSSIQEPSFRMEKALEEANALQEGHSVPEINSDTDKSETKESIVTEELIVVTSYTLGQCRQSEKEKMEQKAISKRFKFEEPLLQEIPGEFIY
# [3] = target: Phosphorylase b kinase gamma catalytic chain, skeletal muscle/heart isoform (Homo sapiens) (UniProt Q16816); assay: Selectivity interaction (KinomeScan (DiscoverX)) EUB0000618a PHKG1
# [4] = target: T3, Mitogen-activated protein kinase kinase kinase 15 (Homo sapiens) (UniProt Q6ZN16); assay: Selectivity interaction (KinomeScan (DiscoverX)) EUB0000655a MAP3K15
# T3 sequence (whole entry): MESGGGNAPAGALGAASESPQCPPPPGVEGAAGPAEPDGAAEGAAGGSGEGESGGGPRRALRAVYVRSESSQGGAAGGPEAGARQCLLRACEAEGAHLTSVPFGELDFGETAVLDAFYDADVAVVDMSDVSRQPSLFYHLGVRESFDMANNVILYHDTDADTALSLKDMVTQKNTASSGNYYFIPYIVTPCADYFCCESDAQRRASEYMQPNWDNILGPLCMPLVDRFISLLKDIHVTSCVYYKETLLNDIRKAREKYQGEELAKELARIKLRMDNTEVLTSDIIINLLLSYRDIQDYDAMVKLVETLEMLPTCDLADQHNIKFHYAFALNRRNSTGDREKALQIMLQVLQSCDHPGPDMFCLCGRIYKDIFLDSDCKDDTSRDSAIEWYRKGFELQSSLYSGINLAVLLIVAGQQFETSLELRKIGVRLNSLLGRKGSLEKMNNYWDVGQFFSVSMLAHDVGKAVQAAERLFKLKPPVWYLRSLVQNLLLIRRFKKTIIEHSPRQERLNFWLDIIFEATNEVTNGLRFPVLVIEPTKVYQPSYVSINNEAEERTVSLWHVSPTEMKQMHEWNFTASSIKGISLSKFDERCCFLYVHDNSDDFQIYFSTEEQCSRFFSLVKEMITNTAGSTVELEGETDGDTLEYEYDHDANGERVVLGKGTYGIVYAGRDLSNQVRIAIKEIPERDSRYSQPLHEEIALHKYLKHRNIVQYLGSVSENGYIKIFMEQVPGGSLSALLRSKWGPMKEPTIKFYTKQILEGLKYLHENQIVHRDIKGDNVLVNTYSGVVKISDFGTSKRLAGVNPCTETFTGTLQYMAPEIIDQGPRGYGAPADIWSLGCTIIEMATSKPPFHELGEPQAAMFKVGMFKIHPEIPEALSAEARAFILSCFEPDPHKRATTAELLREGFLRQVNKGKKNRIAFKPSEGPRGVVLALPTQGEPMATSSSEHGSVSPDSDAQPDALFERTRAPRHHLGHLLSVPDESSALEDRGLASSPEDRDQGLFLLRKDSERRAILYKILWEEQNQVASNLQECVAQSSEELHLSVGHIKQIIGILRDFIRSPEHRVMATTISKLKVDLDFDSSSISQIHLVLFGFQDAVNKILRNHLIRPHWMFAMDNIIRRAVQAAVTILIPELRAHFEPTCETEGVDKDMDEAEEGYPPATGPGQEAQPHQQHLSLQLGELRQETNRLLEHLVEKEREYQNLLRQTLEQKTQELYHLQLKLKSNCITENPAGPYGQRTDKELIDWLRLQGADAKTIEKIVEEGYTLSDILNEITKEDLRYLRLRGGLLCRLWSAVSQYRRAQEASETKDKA
# Sequence of Phosphorylase b kinase gamma catalytic chain, skeletal muscle/heart isoform (Homo sapiens) (Q16816 whole entry, looked up, canonical isoform): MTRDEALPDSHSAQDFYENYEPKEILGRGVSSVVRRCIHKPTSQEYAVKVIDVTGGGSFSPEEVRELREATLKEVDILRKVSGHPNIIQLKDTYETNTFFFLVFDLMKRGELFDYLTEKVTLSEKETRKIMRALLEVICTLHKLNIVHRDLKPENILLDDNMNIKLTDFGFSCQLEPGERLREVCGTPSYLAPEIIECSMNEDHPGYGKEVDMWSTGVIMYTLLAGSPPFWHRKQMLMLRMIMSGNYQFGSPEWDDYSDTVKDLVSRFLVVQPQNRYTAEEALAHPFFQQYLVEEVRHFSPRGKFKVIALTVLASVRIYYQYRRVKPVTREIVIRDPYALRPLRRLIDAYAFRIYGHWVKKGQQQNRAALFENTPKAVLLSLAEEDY
smiles,measurement,setting,value
Cc1cc([C@@H](C)Nc2ccccc2C(=O)O)c2nc(N3CCOCC3)cc(=O)n2c1 [AZD-6482],% of control,[1],98%
CNC(=O)Nc1ccc(-c2nc(N3CC4CCC(C3)O4)c3cnn(C4CCC5(CC4)OCCO5)c3n2)cc1,% of control,[2],100%
O[C@H]1CC[C@H](Nc2ncc3nc(Nc4c(F)cc(F)cc4F)n([C@H]4CCOC4)c3n2)CC1,% of control,[3],100%
CN(C)CCOc1ccc(-c2nc(-c3ccncc3)c(-c3ccc4c(c3)CC/C4=N\O)[nH]2)cc1,% of control,[4],100%
